Laboratory results: patent publication US6872712B1, “Cyclic glycerophosphates and analogs thereof” (Yeda Research and Development Co. Ltd., priority 1999, dated 2005)
One block for each compound: values may come before it.

How the values were obtained:
perforated CHO cells = assay: Intracellular binding in perforated CHO cells (displacement of 1,3-cP32P); parameters: species or system Chinese hamster; details: 20 μM 1,3-cP32P, 5 minutes at 4° C., increasing amounts of competitor (FIG. 9)
Protocol: Radioactivity was scored after 2 washings with PBS at 4° C. as above. […] In this set of experiments the number of displaceable (i.e. specifically bound) ligands was estimated to be in the range of 10^7-10^8 per cell.

[1] = system: intracellular proteins of target cells (CHO and NIH-3T3 cells); assay: Phosphorylation of intracellular proteins of target cells (general statements); type: cell-based
Protocol: In accordance with the invention, the phosphorylating activity of the CGs may be measured by any of the methods known in the art. Generally, following incubation of the CG with the target cells, the cells are lysed, the protein concentration in each sample is determined and the level of phosphorylation of the proteins is determined using known methods and suitable and available polyclonal or monoclonal antibodies. Typically, phosphorylation occurs on the tyrosine residues of the protein and such phosphorylation is determined using either polyclonal or monoclonal anti phosphotyrosine antibodies (such as those described below in the Examples). However, in some cases, phosphorylation occurs on the threonine or serine components of the proteins in which case polyclonal or monoclonal anti phosphothreonine or anti phosphoserine antibodies may be used.
(§1) The cyclic phosphates 1,3 cGP, 1,3 cPP, 1,2 cGP, 1,2 cPP, P-1,3 cGP and P-1,3 cPP and the controls αGP and βGP were dissolved in HBSS, or methanol to form stocks of 1 mM or 10 mM. […] The protein concentration in each sample, as evaluated by the Bradford assay, was in the range of 1-1.5 mg/ml. […] Bound antibodies were detected by horseradish peroxidase-conjugated anti-rabbit antibodies (Transduction Laboratories, Lexington Ky.) after 2 hours incubation at room temperature, using the conventional ECL detection method. […]

[2] = Stability of cyclic phosphates in PBS / aqueous solution (TLC); type: physicochemical; details: 10 mg/ml in PBS, 37°, up to 24 hours
[3] = Stability of cyclic phosphates in cell lysates (TLC); details: 10 mg/ml in PBS mixed with CHO or NIH-3T3 cell lysate (0.1 mg/ml protein), 37°, up to 24 hours
[4] = system: tyrosine phosphorylated proteins in CHO cells; assay: Tyrosine phosphorylation in CHO cells (Western blot with anti-phosphotyrosine antibodies); type: cell-based, Chinese hamster; details: CHO cells, 5 μM or 10 μM, 37° C., 1, 3 or 5 mins, monoclonal antibodies; bands about 35, 60-70, 120 and 38 kD (FIG. 4)
Protocol: Chinese hamster ovary (CHO) cells (Puck, 1985; Gottesman, 1987) and NIH-3T3 cells (NIH), were used in the following experiments. CHO cells were grown at 37° C. in a humidified 5% CO2 atmosphere in 60×15 mm Petri dishes (Falcon) containing F12 medium supplemented with 10% fetal calf serum (FCS) and 2 mM glutamine. When reaching near confluence, the cells were placed under overnight starvation by replacing the medium to F12+2 mM glutamine with 0.1% FCS. The stimulation experiments were performed with cells which were under starvation for 12-18 hours.
as §1, with “mM. They were diluted into the cell culture medium to a final concentration of up to 20 μM. At the assigned stimulation time (0.5-20 min.) the medium was aspirated under vacuum and the cells were washed 3 times with cold (4° C.) phosphate buffered saline (PBS).” for “mM.”

[5] = system: protein kinases of CHO cells (P42 MAPK (ERK 2)); assay: In-gel kinase assay in the presence of MBP; type: cell-based, Chinese hamster; details: 2 μM for 2 and 5 minutes (FIG. 6)
Protocol: Phosphorylated cell proteins were separated by SDS-PAGE using a gel that was copolymerized with MBP (0.5 mg/ml) and treated as described (Karunuguran et al., EMBO J. 15:254-264, 1996). After electrophoresis, the gel was fixed with isopropanol and denatured using 6M Urea. Renaturation was achieved by gradual removal of the excess of urea followed by extensive washings in a renaturing buffer (16 h, 4° C.) and in a buffer containing […] HEPES pH 7.6, and 20 mM MgCl2 (30 min, 30° C.). The gel was then subjected to phosphorylation in a buffer containing 20 mM HEPES pH 7.6, 20 mM MgCl2, 2 mM DTT, 20 μM ATP and […] [y^32P]-ATP (30° C. for 120 min). Finally the gel was extensively washed, dried, and subjected to autoradiography.
(§2) The in-gel kinase assay in the presence of MBP was applied as described in Materials and Methods above to detect stimulation of protein kinases by the cyclic phosphates. CHO cells were treated either with medium (0 control), or with 2 μM, α GP or β GP for 2 minutes, 2 μM […] for 2 and 5 minutes and […] 1,3-cPP for 2 minutes after which the cells were lysed and analyzed.

Raf1/MAPK cascade = assay: Immunoprecipitation kinase assays (Raf-1, MAPK); type: cell-based, Chinese hamster; details: CHO cells, 2 μM for 2 and 5 minutes (FIG. 6)
Protocol: (§3) (v) Immunoprecipitation kinase assays. Raf-1 Activity was determined by immunoprecipitation with anti-Raf-1 C terminus antibodies (Santa Cruz Biotech, CA) using recombinant MEK1 as a substrate as previously described (Seger, 1994). Mitogen-activated protein kinase (MAPK) activity was determined by immunoprecipitation with anti-ERK2 C terminus antibodies (Santa Cruz Biotech, CA) using MBP as a substrate (Seger, 1994). Jun N-terminal kinase (JNK) activity was determined by purifying the JNK on a GST-Jun (1-97) column followed by phosphorylation (Hibi, 1993).
as §2
(§4) Their apparent molecular weights were around MW of 35-40, 55 and 62 kD. The 35-40 kD protein kinase which was activated by 1,3-cGP (E) could be assigned to the P42 MAPK (ERK 2). In addition, cells were treated as described above and then subjected to Raf-1, MAPK and IP kinase assays and these are presented in the first and second rows of FIG. 6. In parallel, JNK assay was performed (third row, […]).

[6] = system: Jun N-terminal kinase (JNK); assay: JNK assay (GST-Jun substrate); type: cell-based, Chinese hamster; details: CHO cells, 2 μM for 2 and 5 minutes (FIG. 6)
Protocol: as §3, §4

cell lysate phosphatases = assay: Inhibition of phosphatase activity of cell lysate (PNPP substrate); type: biochemical; details: 50 μM, 50 mM PNPP, 90 minutes at 37° C., pH 7.4
Protocol: Inhibition of phosphatase activity of cell lysate by cyclic phosphates was assayed in 1.0 ml of 50 mM Tris-HCl buffer, pH 7.4, containing 50 mM p-nitrophenyl phosphate, PNPP, as a substrate. Reaction was initiated by the addition of crude cell lysate (100 μg/ml final protein concentration) and terminated after 90 minutes at 37° C. by an addition of 50 μl of 1M NaOH. […] Assays were conducted under the same conditions as above in the presence of 50 μM cyclic phosphate. The enzyme activity in the absence of inhibitor was taken as 100% activity.

CHO cells = assay: Uptake of 32P labeled 1,3-cPP by CHO cells; type: cell-based, Chinese hamster; details: intact CHO cells, increasing amounts of unlabeled compound
Protocol: After 2 washings with PBS the cells were disintegrated in 1 M NaOH and radioactivity was scored with a β counter. The insert presents the magnified uptake profile for short incubations (up to 2 minutes) where the intercept (0 time incubation) corresponded to approximately 3×10^6 molecules per cell, while at equilibrium (above 2 hours incubation) incorporation corresponded to approximately 2×10^8 molecules per cell.

[7] = system: estrogen receptor (ER) in human ERmod T47D cells; assay: Estrogen receptor expression in T47D cells (immunostaining, score 0 to 4); type: cell-based; details: 1 μM, 7 days of incubation (FIG. 11)
Protocol: Tumor cells were incubated for 7 days in the absence or presence of 1 μM of 1,3 cGP. On each of the noted days, cells were harvested by trypsinization, washed and fixed by dryng in air. The preparations were then peroxidased and protein blocked. Following this, the cells were labeled with first antibody (mouse-anti-human ER) for 30 mins. at room temperature (RT). After washing, cells were incubated with biotinylated second antibody for 10 min at RT. After washing, the cells were incubated with streptavidin conjugated to horse radish peroxidase and color reaction with the DAB reagent was performed. Background staining was done with hematoxylin (mayer) and the fixation process was completed with water, alcohol and finally xylene immersions. The slides were covered, sealed and examined by a pathologist in a blind fashion. Expression of the ER was scored on a scale of 0 to 4 pulses, where 4 pulses is the highest score.

insulin receptor = assay: Tyrosine phosphorylation of the insulin receptor in CHO-T cells; type: cell-based; details: 20 mins
Protocol: Group 4: 0.1 μM 1,3, cPP only.
Tyrosine phosphorylation was determined using anti-phosphotyrosine antibody (as described above).

hydrolysis to the linear form in PBS [2]: No hydrolysis
hydrolysis to the linear form by cell lysate [3]: No hydrolysis
Compound: O=P1(O)OCC(CO)O1 (stereo not drawn) [1,2 cGP, 1,2 cyclic glycerophosphate]

hydrolysis to the linear form in PBS [2]: No hydrolysis
hydrolysis to the linear form by cell lysate [3]: No hydrolysis
Compound: CC1COP(=O)(O)O1 (stereo not drawn) [1,2 cPP, 1,2 cyclic propanediol phosphate]
kinetics of tyrosine phosphorylation [4]: enhanced tyrosine phosphorylation

hydrolysis to the linear form in PBS [2]: No hydrolysis
hydrolysis to the linear form by cell lysate [3]: No hydrolysis
Compound: O=P1(O)OCC(O)CO1 (stereo not drawn) [1,3 cGP, 1,3 cyclic glycerophosphate]
displacement of 1,3-cP32P in perforated CHO cells (perforated CHO cells): clear binding competition
effect of unlabeled competitor on the uptake profile of 1,3-cP32P (CHO cells): remained essentially unaltered
inhibition of cell lysate phosphatase activity (cell lysate phosphatases): approximately 10%
level of expression of estrogen receptor (ER) versus growth medium alone [7]: increases
level of expression of estrogen receptor (ER) versus growth medium alone ([7]; listed as 1,3, cGP): significantly higher

Continued, compound first:

Compound: O=P(O)(O)OCC(O)CO (stereo in doubt) [αGP, L-α-glycerophosphate, reference compound]
displacement of 1,3-cP32P in perforated CHO cells (perforated CHO cells): ineffective
level of phosphorylation in intracellular proteins after extracellular application [1]: lack this activity

Compound: O=P1(O)OCC(O)CO1 (stereo not drawn) [1,3 cGP(E)]
stimulation of 35-40 kD protein kinase (P42 MAPK, ERK 2) [5]: activated
activation of the Raf1/MAPK cascade (Raf1/MAPK cascade): ≤ 5 fold
effect on the JNK pathway [6]: unaffected
inhibition of the lysate phosphatases (in words) (cell lysate phosphatases): limited inhibition

Compound: O=P(O)(O)OC(CO)CO [βGP, β-Glycerophosphate]
level of phosphorylation in intracellular proteins after extracellular application [1]: lack this activity

Compound: insulin: hormone; binding to its receptor results in tyrosine phosphorylation of 117 kD and 200 kD receptor proteins
phosphorylation of the insulin receptors (insulin receptor; 0.1 nM insulin): partial phosphorylation
phosphorylation of the insulin receptors (insulin receptor; 1 nM insulin): maximal phosphorylation
